How the values were obtained:
Alternaria solani = Alternaria solani growth inhibition in nutrient broth, microtiter plate; type: cell-based; conditions: alone, 48 hrs
Procedure: (§1) Alternaria solani (Early Blight Tomato/Potato): Conidia of the fungus from cryogenic storage were directly mixed into nutrient broth (PDB potato dextrose broth). A DMSO solution of the test compounds was placed into a microtiter plate (96-well format) and the nutrient broth containing the fungal spores was added to it. The test plates were incubated at 24 C and the inhibition of growth was determined photometrically after 48 hrs.

[1] = tested on: Phakopsora pachyrhizi (Asian soybean rust); experiment: Phakopsora pachyrhizi on leaf disks from sprayed soybean plants; type: in vivo; conditions: alone, 11 to 14 days after inoculation; for inhibition at 1 g/ha: 1 g ai/ha
Procedure: Phakopsora Pachyrhizi (Soybean Rust):
Whole soybean plants are treated with the recited active ingredients 4 weeks after planting. 1 day after spraying leaf disks are cut from the first trifoliate leaf. Five repetitions at each rate are conducted. The leaf disks are inoculated with Phakopsora pachyrhizi (Asian soybean rust) one day after treatment. Evaluation of the leaf disks is conducted 11 to 14 days after inoculation and the activity is derived from the relation of the treated vs untreated, infested check. The rates of the active ingredients used are given in Table as g active ingredient (a.i.)/ha.

Septoria tritici = Septoria tritici growth inhibition in nutrient broth, microtiter plate; type: cell-based; conditions: alone, 72 hrs
Procedure: as §1, with “Septoria tritici (Leaf Blotch):” for “Alternaria solani (Early Blight Tomato/Potato):”, “72” for “48”

Botrytis cinerea = Botrytis cinerea growth inhibition in nutrient broth, microtiter plate; type: cell-based; conditions: alone, 72 hrs
Procedure: as §1, with “Botrytis cinerea (Gray Mould):” for “Alternaria solani (Early Blight Tomato/Potato):”, “([…]” for “(PDB”, “72” for “48”

Sclerotinia sclerotiorum = Sclerotinia sclerotiorum growth inhibition in nutrient broth, microtiter plate; type: cell-based; conditions: alone, 72 hrs
Procedure: as §1, with “Sclerotinia sclerotiorum (Cottony Rot, White Mold, Etc.): Mycelial fragments” for “Alternaria solani (Early Blight Tomato/Potato): Conidia”, “fungus prepared” for “fungus”, “a fresh liquid culture” for “cryogenic storage”, “72 hrs at 620 nm.” for “48 hrs.”

[2] = tested on: Glomerella Lagenarium Syn. Colletotrichum lagenarium; experiment: Glomerella lagenarium growth inhibition in nutrient broth, microtiter plate; type: cell-based; conditions: alone, 72 hrs
Procedure: as §1, with “Glomerella Lagenarium Syn. Colletotrichum lagenarium (Anthracnose of Cucurbits):” for “Alternaria solani (Early Blight Tomato/Potato):”, “72 hrs at 620 nm.” for “48 hrs.”

[3] = tested on: Mycosphaerella arachidis Syn. Cercospora arachidicola; experiment: Mycosphaerella arachidis growth inhibition in nutrient broth, microtiter plate; type: cell-based; conditions: alone, 5-6 days
Procedure: as §1, with “Mycosphaerella arachidis Syn. Cercospora arachidicola (Brown Leaf Spot of Peanut):” for “Alternaria solani (Early Blight Tomato/Potato):”, “5-6 days at 620 nm” for “48 hrs.”

[4] = Phakopsora pachyrhizi, foliar, read-out: Observed Activity (%)

How did the “Observed Activity (%)” value (Alternaria solani; 2.22 g ai/ha) turn out when `O=C(Nc1ccccc1F)c1ccc(-c2noc(C(F)(F)F)n2)cc1` [Flufenoxadiazam, flufenoxadiazam] was run?
The value was 0%.

And the “Observed Activity (%)” value (Alternaria solani; 6.66 g ai/ha)?
The value was 0%.

What about the “Observed Activity (%)” value (Alternaria solani; 20 g ai/ha) of the same molecule?
Its value is 0%.

And the “Observed Activity (%)” value ([1]; 0.25 g ai/ha)?
Its value is 0%.

And the “Observed Activity (%)” value ([1]; 0.5 g ai/ha)?
The value was 10%.

`COC(=O)NCc1cc(-c2ccn(-c3c(F)cc(C4CC4)cc3F)n2)ccc1C` [Compound A-1.3, methyl N-[[5-[1-(4-cyclopropyl-2,6-difluoro-phenyl)pyrazol-3-yl]-2-methyl-phenyl]methyl]carbamate] was tested. Which “Observed Activity (%)” value (Septoria tritici; 0.001 g ai/ha) did it give?
Its value is 50%.

And the “Observed Activity (%)” value (Botrytis cinerea; 0.005 g ai/ha)?
Its value is 0%.

What about the “Observed Activity (%)” value (Alternaria solani; 0.005 g ai/ha) of the same molecule?
The value was 20%.

And the “Observed Activity (%)” value (Alternaria solani; 0.01 g ai/ha)?
The value was 50%.

What about the inhibition at 0.5 g/ha ([1]; Phakopsora pachyrhizi, foliar, 0.5 g ai/ha, read-out: Observed Activity (%)) of the same molecule?
Its inhibition at 0.5 g/ha is 0%.

What about the inhibition at 1 g/ha [1, 4] of the same molecule?
Its inhibition at 1 g/ha is 2%.

And the “Observed Activity (%)” value (Sclerotinia sclerotiorum; 0.001 g ai/ha)?
Its value is 0%.

What about the “Observed Activity (%)” value (Sclerotinia sclerotiorum; 0.005 g ai/ha) of the same molecule?
The value was 0%.

And the “Observed Activity (%)” value ([2]; 0.001 g ai/ha)?
The value was 0%.

What about the “Observed Activity (%)” value ([2]; 0.005 g ai/ha) of the same molecule?
The value was 0%.

And the “Observed Activity (%)” value ([3]; 0.001 g ai/ha)?
The value was 0%.

And the “Observed Activity (%)” value ([3]; 0.005 g ai/ha)?
Its value is 50%.

`COC(=O)NCc1cc(-c2ccn(-c3c(F)cc(C(C)C)cc3F)n2)ccc1C` [Compound A-1.1, Methyl N-[[5-[1-(2,6-difluoro-4-isopropyl-phenyl)pyrazol-3-yl]-2-methyl-phenyl]methyl]carbamate] was tested. Which “Observed Activity (%)” value (Septoria tritici; 0.001 g ai/ha) did it give?
Its value is 20%.

And the “Observed Activity (%)” value (Botrytis cinerea; 0.005 g ai/ha)?
The value was 0%.

And the “Observed Activity (%)” value (Alternaria solani; 0.005 g ai/ha)?
Its value is 0%.

And the inhibition at 1 g/ha [1, 4]?
Its inhibition at 1 g/ha is 0%.

And the “Observed Activity (%)” value (Sclerotinia sclerotiorum; 0.001 g ai/ha)?
The value was 0%.

What about the “Observed Activity (%)” value (Sclerotinia sclerotiorum; 0.005 g ai/ha) of the same molecule?
The value was 0%.

What about the “Observed Activity (%)” value ([2]; 0.001 g ai/ha) of the same molecule?
Its value is 0%.

And the “Observed Activity (%)” value ([2]; 0.005 g ai/ha)?
Its value is 0%.

And the “Observed Activity (%)” value ([3]; 0.001 g ai/ha)?
Its value is 0%.

What about the “Observed Activity (%)” value ([3]; 0.005 g ai/ha) of the same molecule?
Its value is 20%.

For `CCC(=O)Oc1c(OC)ccnc1C(=O)N[C@@H](C)C(=O)O[C@@H](C)[C@@H](C)c1ccccc1C` [Metarylpicoxamid, metarylpicoxamid], which “Observed Activity (%)” value (Septoria tritici; 0.008 g ai/ha) is on record?
The value was 20%.

What about the “Observed Activity (%)” value (Septoria tritici; 0.0246 g ai/ha) of the same molecule?
The value was 50%.

And the “Observed Activity (%)” value (Septoria tritici; 0.074 g ai/ha)?
The value was 70%.

And the “Observed Activity (%)” value (Botrytis cinerea; 0.0246 g ai/ha)?
The value was 0%.

What about the “Observed Activity (%)” value (Botrytis cinerea; 0.074 g ai/ha) of the same molecule?
Its value is 20%.

And the “Observed Activity (%)” value (Botrytis cinerea; 0.22 g ai/ha)?
Its value is 50%.

What about the “Observed Activity (%)” value (Alternaria solani; 0.074 g ai/ha) of the same molecule?
The value was 0%.

And the “Observed Activity (%)” value (Alternaria solani; 0.22 g ai/ha)?
Its value is 20%.

What about the “Observed Activity (%)” value (Alternaria solani; 0.66 g ai/ha) of the same molecule?
Its value is 50%.

What about the “Observed Activity (%)” value ([1]; 0.25 g ai/ha) of the same molecule?
The value was 0%.

What about the “Observed Activity (%)” value ([1]; 0.5 g ai/ha) of the same molecule?
The value was 34%.

What about the “Observed Activity (%)” value (Sclerotinia sclerotiorum; 2 g ai/ha) of the same molecule?
The value was 50%.

What about the “Observed Activity (%)” value ([2]; 0.22 g ai/ha) of the same molecule?
Its value is 0%.

And the “Observed Activity (%)” value ([2]; 0.66 g ai/ha)?
The value was 0%.

What about the “Observed Activity (%)” value ([2]; 2 g ai/ha) of the same molecule?
Its value is 70%.

What about the “Observed Activity (%)” value ([3]; 0.0080 g ai/ha) of the same molecule?
Its value is 20%.

And the “Observed Activity (%)” value ([3]; 0.0246 g ai/ha)?
The value was 50%.
